Data reported in ChEMBL document CHEMBL3400078, “Constituents of the stem barks of Ailanthus altissima and their potential to inhibit LPS-induced nitric oxide production” (Bioorg Med Chem Lett, 2015).

Tested on: RAW264.7
Assay: Antiinflammatory activity in mouse RAW264.7 cells assessed as decrease in LPS-induced NO production after 24 hrs by Griess assay
Type: functional, cell-based
Details: RAW264.7, 24 h

| IC50 | Compound |
| --- | --- |
| 63.5 µM | O=c1ccc2ncc(O[C@@H]3O[C@H](CO)[C@@H](O)[C@H](O)[C@H]3O[C@@H]3OC[C@](O)(CO)[C@H]3O)c3c4ccccc4n1c23 |
| 85 µM | C[C@@](O)(CC(=O)O)CC(=O)OC[C@H]1O[C@@H](Oc2cnc3ccc(=O)n4c5ccccc5c2c34)[C@H](O)[C@@H](O)[C@@H]1O |
| > 100 µM | C[C@@](O)(CC(=O)O)CC(=O)OC[C@H]1O[C@@H](Oc2cnc3ccc(=O)n4c5ccccc5c2c34)[C@H](O[C@@H]2OC[C@](O)(CO)[C@H]2O)[C@@H](O)[C@@H]1O |
| 100 µM | C=C1[C@@H](O)[C@]2(O)OC[C@]34[C@H]2[C@@]2(C)[C@H](O)[C@@H](O[C@@H]5O[C@H](CO)[C@@H](O)[C@H](O)[C@H]5O)C=C(C)[C@@H]2C[C@H]3OC(=O)C[C@@H]14 |
| 71.6 µM | COc1cc(/C=C/C(=O)O)ccc1O[C@@H]1O[C@H](CO)[C@@H](O)[C@H](O)[C@H]1O |
| > 100 µM | COc1cc2ccc(=O)oc2c(OC)c1O |
| 43.8 µM | COc1cc(C(=O)CCO)ccc1O |
| 73.4 µM | O=C(O)/C=C/c1ccc(O)cc1 [COUMARIC ACID] |
| > 100 µM | COc1cc(/C=C/C(=O)O)ccc1O [FERULATE] |
| 15.8 µM | CC(=N)NCCCC[C@H](N)C(=O)O [L-NIL] |
| 72.8 µM | O=C(O)c1ccc(O)cc1 [PARABEN] |
| 63.1 µM | CC1=CC(=O)[C@@H](O)[C@]2(C)[C@H]3[C@@]4(O)C(=O)OC[C@@]35[C@@H](C[C@@H]12)OC(=O)C[C@H]5[C@H]4C [SHINJUDILACTONE] |
| 56.4 µM | C=C1[C@H](O)[C@]2(O)OC[C@]34[C@H]2[C@@]2(C)[C@H](O)[C@@H](O)C=C(C)[C@@H]2C[C@H]3OC(=O)C[C@@H]14 [SHINJULACTONE A] |
| 21.6 µM | COc1cc([C@H]2OC[C@H]3[C@@H]2CO[C@@H]3c2cc(OC)c(O)c(OC)c2)cc(OC)c1O [SYRINGARESINOL] |
| 23.2 µM | COc1cc(C(=O)O)ccc1O [VANILLIC ACID] |
